Consider 27 compounds from patent EP2857388A1, “Azoles containing sulfone” (Grünenthal GmbH, priority 2013, dated 2015).

SMILES strings stand for the structures.

The target in the assay is T1, human B1R (Homo sapiens, UniProt P46663).
T1 construct: expressed in transfected cells; host or cells: CHO K1 cells (Chinese Hamster Ovary), stably transfected
T1 sequence (P46663 1-353): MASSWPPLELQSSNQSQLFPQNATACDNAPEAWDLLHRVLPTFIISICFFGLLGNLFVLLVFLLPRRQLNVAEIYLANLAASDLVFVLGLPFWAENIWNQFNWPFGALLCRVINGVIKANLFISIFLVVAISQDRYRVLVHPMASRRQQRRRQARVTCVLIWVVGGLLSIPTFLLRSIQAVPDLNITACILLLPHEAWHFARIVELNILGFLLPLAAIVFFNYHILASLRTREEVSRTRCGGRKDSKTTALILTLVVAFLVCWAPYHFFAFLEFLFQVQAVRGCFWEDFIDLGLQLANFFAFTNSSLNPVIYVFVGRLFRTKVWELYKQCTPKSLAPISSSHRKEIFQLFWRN
The experiment in a line: Functional assay at bradykinin receptor 1 (B1R): Ca2+ fluorescence (Fluo-4) in FLIPR/Novostar, antagonist mode. Type of assay: cell-based. Conditions: test substance 10 µM; CHO K1 cells stably transfected with human B1R gene (hB1R-Zellen); agonist Lys-Des-Arg9-Bradykinin at EC80; % inhibition relative to maximal achievable inhibition; read-out: % Inhibierung (human B1R) bei 10 µM. Put shortly:
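CHO K1 cells stably expressing human B1R were loaded with Fluo-4 and preincubated 6–20 min with test compound before Lys-Des-Arg9-bradykinin at its EC80. Peak fluorescence (ex 488/em 540 nm) gave % inhibition versus maximal inhibition; IC50 from several concentrations, n=2 or 3.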
Regarding `COc1cc(C)c(S(=O)(=O)Cc2noc(CC(=O)N(C)C3CCN(C4CCOCC4)CC3)n2)c(C)c1` [SC-21, 2-[3-[[(4-Methoxy-2,6-dimethyl-phenyl)sulfonyl]-methyl]-[1,2,4]oxadiazol-5-yl]-N-methyl-N-(1-tetrahydro-pyran-4-yl-piperidin-4-yl)-acetamid], the inhibition at 10 µM turned out to be 100%.

Consider `COc1cc(C)c(S(=O)(=O)Cc2noc(C(=O)N3CCC4(CCN(C)C4)C3)n2)c(C)c1` (stereo not drawn) [CC-147, [3-[[(4-Methoxy-2,6-dimethyl-phenyl)sulfonyl]-methyl]-[1,2,4]oxadiazol-5-yl]-(2-methyl-2,8-diazaspiro[4.4]nonan-8-yl)-methanon], for which the inhibition at 10 µM was 100%.

Turning to `O=C(Cc1nc(CS(=O)(=O)c2cccc(Cl)c2Cl)no1)NC1CCNCC1` [CC-54, 2-[3-[[(2,3-Dichlor-phenyl)sulfonyl]-methyl]-[1,2,4]oxadiazol-5-yl]-N-piperidin-4-yl-acetamid], the inhibition at 10 µM is 52%.

As to `COc1cc(C)c(S(=O)(=O)Cc2nc(CC(=O)NC3CCNCC3)no2)c(C)c1` [CC-42, 2-[5-[[(4-Methoxy-2,6-dimethyl-phenyl)sulfonyl]-methyl]-[1,2,4]oxadiazol-3-yl]-N-piperidin-4-yl-acetamid], the inhibition at 10 µM is 100%.

For `Cc1cccc(Cl)c1S(=O)(=O)Cc1noc(C(=O)N2CCC3(CCN(C)C3)C2)n1` (stereo not drawn) [CC-143, [3-[[(2-Chlor-6-methyl-phenyl)sulfonyl]-methyl]-[1,2,4]oxadiazol-5-yl]-(2-methyl-2,8-diazaspiro-[4.4]nonan-8-yl)-methanon], the inhibition at 10 µM was determined as 82%.

For `Cc1cc(S(=O)(=O)Cc2noc(C(=O)N3CCC4(CCN(C)C4)C3)n2)c(C)cc1Cl` (stereo not drawn) [CC-142, [3-[[(4-Chlor-2,5-dimethyl-phenyl)sulfonyl]-methyl]-[1,2,4]oxadiazol-5-yl]-(2-methyl-2,8-diaza-spiro[4.4]nonan-8-yl)-methanon], the inhibition at 10 µM amounted to 99%.

As for `COc1cc(C)c(S(=O)(=O)Cc2noc(CC(=O)N(C)C3CCN(c4ccnc(N(C)C)c4)CC3)n2)c(C)c1` [SC-67, N-[1-(2-Dimethylamino-pyridin-4-yl)-piperidin-4-yl]-2-[3-[[(4-methoxy-2,6-dimethyl-phenyl)-sulfonyl]-methyl]-[1,2,4]oxadiazol-5-yl]-N-methyl-acetamid], the inhibition at 10 µM is 100%.

Consider `COc1cc(C)c(S(=O)(=O)Cc2noc(CC(=O)N(C)C3CCC4(CCN(C)CC4)CC3(C)C)n2)c(C)c1` (stereo not drawn) [SC-33, 2-[3-[[(4-Methoxy-2,6-dimethyl-phenyl)sulfonyl]-methyl]-[1,2,4]oxadiazol-5-yl]-N-methyl-N-(4,4,9-trimethyl-9-azaspiro[5.5]undecan-3-yl)-acetamid], for which the inhibition at 10 µM was determined as 100%.

On to `Cc1cccc(Cl)c1S(=O)(=O)Cc1noc(CC(=O)NC2CCC(N3CCCC3)CC2)n1` (stereo not drawn) [CC-93, 2-[3-[[(2-Chlor-6-methyl-phenyl)sulfonyl]-methyl]-[1,2,4]oxadiazol-5-yl]-N-(4-pyrrolidin-1-yl-cyclohexyl)-acetamid], for which the inhibition at 10 µM was 100%.

Take `COc1cc(C)c(S(=O)(=O)Cc2nnc(CC(=O)NC3CCC(N(C)C)CC3)o2)c(C)c1` (stereo not drawn) [CC-34, N-(4-Dimethylamino-cyclohexyl)-2-[5-[[(4-methoxy-2,6-dimethyl-phenyl)sulfonyl]-methyl]-[1,3,4]oxadiazol-2-yl]-acetamid]: the inhibition at 10 µM is 100%.

Take `Cc1cc(S(=O)(=O)Cc2noc(C(=O)NC3CCC(N4CCCC4)CC3(C)C)n2)c(C)cc1Cl` (stereo not drawn) [CC-22, 3-[[(4-Chlor-2,5-dimethyl-phenyl)sulfonyl]-methyl]-N-(2,2-dimethyl-4-pyrrolidin-1-yl-cyclohexyl)-[1,2,4]oxadiazol-5-carbonsäure amid]: the inhibition at 10 µM amounted to 100%.

Turning to `COc1cc(C)c(S(=O)(=O)Cc2noc(C(=O)N3CCN(Cc4ccc(OC)nc4)CC3)n2)c(C)c1` [SC-59, [3-[[(4-Methoxy-2,6-dimethyl-phenyl)sulfonyl]-methyl]-[1,2,4]oxadiazol-5-yl]-[4-[(6-methoxy-pyridin-3-yl)-methyl]-piperazin-1-yl]-methanon], the inhibition at 10 µM is 100%.

Consider `COc1cc(C)c(S(=O)(=O)Cc2nnc(CC(=O)NC3CCN(C)CC3(C)C)o2)c(C)c1` (stereo not drawn) [CC-111, 2-[5-[[(4-Methoxy-2,6-dimethyl-phenyl)sulfonyl]-methyl]-[1,3,4]oxadiazol-2-yl]-N-(1,3,3-trimethyl-piperidin-4-yl)-acetamid], for which the inhibition at 10 µM was 100%.

Regarding `COc1cc(C)c(S(=O)(=O)Cc2noc(CC(=O)NC3CCC(c4ccncc4)CC3)n2)c(C)c1` (stereo not drawn) [SC-37, 2-[3-[[(4-Methoxy-2,6-dimethyl-phenyl)sulfonyl]-methyl]-[1,2,4]oxadiazol-5-yl]-N-(4-pyridin-4-yl-cyclohexyl)-acetamid], the inhibition at 10 µM was 100%.

Regarding `COc1cc(C)c(S(=O)(=O)Cc2cn(CC(=O)N(C)[C@H]3CCC[C@@H](N4CCN(C)CC4)C3)nn2)c(C)c1` [SC-84, 2-[4-[[(4-Methoxy-2,6-dimethyl-phenyl)sulfonyl]-methyl]-1H-[1,2,3]triazol-1-yl]-N-methyl-N-[(1S,3R)-3-(4-methyl-piperazin-1-yl)-cyclohexyl]-acetamid], the inhibition at 10 µM amounted to 100%.

For `COc1cc(C)c(S(=O)(=O)Cc2noc(CC(=O)N(C)C3CCN(c4cc(C)nc(C)n4)CC3)n2)c(C)c1` [SC-42, N-[1-(2,6-Dimethyl-pyrimidin-4-yl)-piperidin-4-yl]-2-[3-[[(4-methoxy-2,6-dimethyl-phenyl)sulfonyl]-methyl]-[1,2,4]oxadiazol-5-yl]-N-methyl-acetamid], the inhibition at 10 µM came out at 99%.

Turning to `COc1cc(C)c(S(=O)(=O)Cc2nc(CC(=O)NC3CCN(C)CC3(C)C)no2)c(C)c1` (stereo not drawn) [CC-102, 2-[5-[[(4-Methoxy-2,6-dimethyl-phenyl)sulfonyl]-methyl]-[1,2,4]oxadiazol-3-yl]-N-(1,3,3-trimethyl-piperidin-4-yl)-acetamid], the inhibition at 10 µM is 100%.

In the case of `COc1cc(C)c(S(=O)(=O)Cc2noc(CC(=O)N(C3CC3)C3CCN(c4ccncc4)CC3)n2)c(C)c1` [SC-22, N-Cyclopropyl-2-[3-[[(4-methoxy-2,6-dimethyl-phenyl)sulfonyl]-methyl]-[1,2,4]oxadiazol-5-yl]-N-(1-pyridin-4-yl-piperidin-4-yl)-acetamid], the inhibition at 10 µM was determined as 100%.

Turning to `COc1cc(C)c(S(=O)(=O)Cc2nc(CC(=O)N(C)C3CCNCC3(C)C)no2)c(C)c1` (stereo not drawn) [CC-101, N-(3,3-Dimethyl-piperidin-4-yl)-2-[5-[[(4-methoxy-2,6-dimethyl-phenyl)sulfonyl]-methyl]-[1,2,4]oxadiazol-3-yl]-N-methyl-acetamid], the inhibition at 10 µM was found to be 100%.

As for `COc1cc(C)c(S(=O)(=O)Cc2noc(C(=O)N3[C@@H]4CC[C@H]3CC(Oc3ccncc3)C4)n2)c(C)c1` (stereo partly drawn) [CC-149, [3-[[(4-Methoxy-2,6-dimethyl-phenyl)sulfonyl]-methyl]-[1,2,4]oxadiazol-5-yl]-[(1S,5R)-3-pyridin-4-yloxy-8-azabicyclo[3.2.1]octan-8-yl]-methanon], the inhibition at 10 µM was determined as 100%.

In the case of `Cc1cccc(Cl)c1S(=O)(=O)Cc1noc(C(=O)N2CCC(N3CCN(C)CC3)CC2)n1` [CC-138, [3-[[(2-Chlor-6-methyl-phenyl)sulfonyl]-methyl]-[1,2,4]oxadiazol-5-yl]-[4-(4-methyl-piperazin-1-yl)-piperidin-1-yl]-methanon], the inhibition at 10 µM was 95%.

On to `COc1cc(C)c(S(=O)(=O)Cc2noc(C(=O)NC3CCN(c4ccncc4)CC3)n2)c(C)c1` [SC-01, 3-[[(4-Methoxy-2,6-dimethyl-phenyl)sulfonyl]-methyl]-N-(1-pyridin-4-yl-piperidin-4-yl)-[1,2,4]oxadiazol-5-carbonsäure amid], for which the inhibition at 10 µM turned out to be 99%.

Regarding `COc1cc(C)c(S(=O)(=O)Cc2noc(C(=O)N(C)CCC3CCN(c4ccncc4)CC3)n2)c(C)c1` [CC-10, 3-[[(4-Methoxy-2,6-dimethyl-phenyl)sulfonyl]-methyl]-N-methyl-N-[2-(1-pyridin-4-yl-piperidin-4-yl)-ethyl]-[1,2,4]oxadiazol-5-carbonsäure amid], the inhibition at 10 µM amounted to 100%.

`COc1cc(C)c(S(=O)(=O)Cc2noc(CC(=O)NC3CCOCC3(C)C)n2)c(C)c1` (stereo not drawn) [SC-36, N-(3,3-Dimethyl-tetrahydro-pyran-4-yl)-2-[3-[[(4-methoxy-2,6-dimethyl-phenyl)sulfonyl]-methyl]-[1,2,4]oxadiazol-5-yl]-acetamid]: the inhibition at 10 µM worked out at 98%.

As to `Cc1cc(S(=O)(=O)Cc2noc(CC(=O)NC3CCC(N4CCCC4)CC3)n2)c(C)cc1Cl` (stereo not drawn) [CC-70, 2-[3-[[(4-Chlor-2,5-dimethyl-phenyl)sulfonyl]-methyl]-[1,2,4]oxadiazol-5-yl]-N-(4-pyrrolidin-1-yl-cyclohexyl)-acetamid], the inhibition at 10 µM turned out to be 93%.

With `COc1cc(C)c(S(=O)(=O)Cc2noc(C(=O)NCC3CCC(c4ccncc4)CC3)n2)c(C)c1` (stereo not drawn) [SC-30, 3-[[(4-Methoxy-2,6-dimethyl-phenyl)sulfonyl]-methyl]-N-[(4-pyridin-4-yl-cyclohexyl)-methyl]-[1,2,4]oxadiazol-5-carbonsäure amid], the inhibition at 10 µM is 98%.

With `COc1cc(C)c(S(=O)(=O)Cc2c(C)nn(CC(=O)N(C3CCC(N(C)C)CC3)C3CC3)c2C)c(C)c1` (stereo not drawn) [CC-118, N-Cyclopropyl-N-(4-dimethylamino-cyclohexyl)-2-[4-[[(4-methoxy-2,6-dimethyl-phenyl)sulfonyl]-methyl]-3,5-dimethyl-1H-pyrazol-1-yl]-acetamid], the inhibition at 10 µM amounted to 93%.
